Reference: patent publication US9579406B2, “Phospholipid ether analogs as agents for detecting and locating cancer, and methods thereof” (Cellectar, Inc., priority 2004, dated 2017)
Where two headings read alike, the source gives them in different places.

Experiments:
[1] = system: Walker-256 carcinosarcoma; experiment: Tissue distribution of radioactivity in rats bearing Walker-256 carcinosarcoma; type: in vivo, rat
[2] = Blood plasma kinetics in rats; type: in vivo; details: rat
phospholipase D (PLD) = experiment: Phospholipase D (PLD) assay; type: biochemical, cabbage; details: in the presence of ethanol
Experimental: Finally, several PLE analogs were subjected to a phospholipase D (PLD) assay. The PLD, which was isolated from cabbage, is similar to mammalian PLD in that the cabbage form affords phosphatidylethanol-type products in addition to phosphatidic acid when the enzymatic reaction is performed in the presence of ethanol. Several of the PLE analogs subjected to these assay conditions did give rise to the phosphatidylethanol adduct, indicating possible interaction with PLD. The inventors believes that NM404 is a metabolic substrate to human Phospholipase D, and that the relative absence of Phospholipase D in cancer cell membranes is the underlying mechanism for tumor-selective retention of NM404. Although known from the literature (reference[…]), it is still unclear why cancers lack PLD in their membranes.
As conclusion, the mechanism of selective retention of NM404 may be due to a decrease in the membrane levels of PLD, thus precluding metabolism and clearance of NM404 from the cell. […] This supports the finding of the in vitro cell culture uptake and retention study wherein it was shown that PLE analogs were sequestered by and subsequently metabolized by normal cells (which contained normal levels of PLD). […]

[3] = system: prostate and A549 lung cancer tumors; experiment: Comparative biodistribution in SCID mouse prostate and A549 lung cancer tumor models; details: in vivo
Experimental: In one such example in a rat mammary tumor model, tumor-to-normal tissue ratios reached a maximum at 96 hours with a tumor-to-blood ratio of 8.6 and tumor-to-muscle ratio of 20:1.
Extensive biodistribution data for the prototype agent ^125I-NM324 in several tumor models has previously been reported. […] For example, in a rat mammary tumor model, tumor-to-normal tissue ratios reached a maximum at 96 hours with a tumor-to-blood ratio of 8.6 and tumor-to-muscle ratio of 20:1. […] Comparative biodistribution data for NM324 and NM404 in SCID mice have been obtained in prostate and A549 lung cancer tumor models.

[4] = system: benign intestinal adenomas, preneoplastic hyperplasias; experiment: Selectivity for benign and preneoplastic lesions; type: in vivo, mouse
Excerpt: (§1) Although tumor retention can be explained by a lack of metabolic phospholipase enzymes in the tumor cell membranes, the exact mechanism of tumor cell uptake is unknown. […] The inventors are currently evaluating the selectivity of NM404 in a unique mouse tumor model developed at Wisconsin, wherein both preneoplastic hyperplasias and malignant adenocarcinomas form spontaneously in the mammary gland. […] If this initial observation is validated, then via genomic and or proteomic analysis the inventors may be able to identify a key genetic difference between malignant tumors and their non malignant predecessor cells. This could identify a completely new molecular therapeutic target that may be universal for all types of cancer.

Cervical = experiment: Tumor models examined with NM404 (Table 2); type: in vivo, Transgenic mouse; details: Adenocarcinoma
Excerpt: (§2) NM404 has now been evaluated in 27 animal tumor models, including several lung, and it is clear that once the agent enters tumor cells, it reaches a metabolic dead end and becomes trapped. […] NM404 is also retained in spontaneous murine lung tumors (FIG. 13). Using ^125I-labeled NM404, the inventors have been able to image mammary and prostate tumors in mice in excess of 60 days. […] Imaging and tissue distribution studies performed in mouse models aimed at determining the uptake characteristics in a wide variety of tumor models are summarized in Table 2.
as §1

Min Mouse Intestinal = experiment: Tumor models examined with NM404 (Table 2); type: in vivo, Transgenic mouse; details: Adenocarcinoma
Excerpt: as §2, §1

Pancreas c-myc/k-ras = experiment: Tumor models examined with NM404 (Table 2); type: in vivo, Transgenic mouse; details: Ductal/acinar
Excerpt: as §2, §1

Retinoblastoma = experiment: Tumor models examined with NM404 (Table 2); type: in vivo, Transgenic mouse; details: Blastoma
Excerpt: as §2, §1

TGFα Hepatoma = experiment: Tumor models examined with NM404 (Table 2); type: in vivo, Transgenic mouse
Excerpt: as §2, §1

TRAMP prostate = experiment: Tumor models examined with NM404 (Table 2); type: in vivo, Transgenic mouse; details: Adenocarcinoma
Excerpt: as §2, §1

Liver CT-26 = experiment: Tumor models examined with NM404 (Table 2); type: in vivo, Mouse xenograft; details: Colorectal adenocarcinoma
Excerpt: as §2, §1

LuCaP prostate = experiment: Tumor models examined with NM404 (Table 2); type: in vivo, Mouse xenograft; details: Adenocarcinoma
Excerpt: as §2, §1

Melanoma B16 = experiment: Tumor models examined with NM404 (Table 2); type: in vivo, Mouse xenograft; details: Adenocarcinoma
Excerpt: as §2, §1

Mammary Adenocarcinoma = experiment: Tumor models examined with NM404 (Table 2); type: in vivo, Apc/^min+ mouse
Excerpt: as §2, §1

Mammary SCC = experiment: Tumor models examined with NM404 (Table 2); type: in vivo, Apc/^min+ mouse; details: Squamous cell carcinoma
Excerpt: as §2, §1

[5] = MIRDOSE radiation dose estimates for the adult female; parameters: species or system human (from female rat biodistribution data)
Experimental: Dosimetry estimation regarding I-125-NM404 for an adult female patients were calculated based on SPECT imaging data using female non-tumor bearing rats following administration of I-131-NM404. The results are listed below:
The dosimetry data were calculated from SPECT imaging in rats using I-131-NM404 and then converted to I-125-NM404. The adrenal gland seems to be the dose-limiting or critical organ for radiation exposure. In the SPECT imaging experiments the thyroids of rats were unblocked. Thus, the thyroid calculations should be evaluated with caution.

[6] = system: human PC-3 tumor cells in tibia; experiment: Intratibial PC-3 bone tumor model, radioactivity scan fused with microCT; type: in vivo, NUDE mice; details: 4 days following injection
Experimental: Following in vivo imaging of anesthetized mice, the prostate tumors were removed immediately, and imaged ex vivo on the same scanner (equipped with high resolution 1 mm collimator and 2-D acquisition and analysis software) in order to avoid tissue attenuation associated with the low energy of iodine-125 (FIG. 21). […] In an attempt to simulate bone metastases another experiment was performed wherein human PC-3 tumor cells were implanted into the tibia of immune compromised NUDE mice (n=6) according to a recent reports. Following tumor cell inoculation, mice were scanned serially by high-resolution microCT in order to monitor bone tumor development (FIG. 22). Once bone deterioration was detected, iodine-125 labeled NM404 was administered intravenously via tail vein. Mice were scanned for radioactivity and by microCT 4 days post NM404 administration. Radioactivity scans were fused with microCT scans (FIG. 23) to corroborate NM404 radioactivity and tumor location.

C[N+](C)(C)CCOP(=O)([O-])OCCCCCCCCCCCCCCCCCCc1ccc(I)cc1 [NM-404, 18-(4-iodophenyl)-octadecylphosphocholine]
radioactivity in the tumor (peak) ([1]; 48 hours after administration): 1.14±0.01 % of ID/g
blood levels ([1]; 120 hours): 0.6±0.1 % of ID/g
time of peak tumor radioactivity ([1]; after administration): 48 h
half-life ([2]; read-out: distribution phase half life (converted)): 0.203 days
half-life ([2]; read-out: elimination half life time in plasma (converted)): ~8.71 days
substrate for PLD (phospholipase D (PLD)): a good substrate for this enzyme
tumor uptake [3]: exceeding 25 % of the injected dose
uptake and retention in preneoplastic lesions ([4]; mammary gland model, preliminary): not taken up and retained in preneoplastic lesions
localization in benign intestinal adenomas ([4]; mouse, in vivo): does not localize in benign intestinal adenomas (polyps)
NM404 Tumor Localization (Cervical): Yes (Localization defined as >5% injected dose per gram tumor basis based on tissue distribution data)
NM404 Tumor Localization (Min Mouse Intestinal): Yes (Localization defined as >5% injected dose per gram tumor basis based on tissue distribution data)
NM404 Tumor Localization (Pancreas c-myc/k-ras): Yes (Localization defined as >5% injected dose per gram tumor basis based on tissue distribution data)
NM404 Tumor Localization (Retinoblastoma): Yes (Localization defined as >5% injected dose per gram tumor basis based on tissue distribution data)
NM404 Tumor Localization (TGFα Hepatoma): Yes (Localization defined as >5% injected dose per gram tumor basis based on tissue distribution data)
NM404 Tumor Localization (TRAMP prostate): Yes (Localization defined as >5% injected dose per gram tumor basis based on tissue distribution data)
NM404 Tumor Localization (Liver CT-26): Yes (Localization defined as >5% injected dose per gram tumor basis based on tissue distribution data)
NM404 Tumor Localization (LuCaP prostate): Yes (Localization defined as >5% injected dose per gram tumor basis based on tissue distribution data)
NM404 Tumor Localization (Melanoma B16): Yes (Localization defined as >5% injected dose per gram tumor basis based on tissue distribution data)
NM404 Tumor Localization (Mammary Adenocarcinoma): Yes (Localization defined as >5% injected dose per gram tumor basis based on tissue distribution data)
NM404 Tumor Localization (Mammary SCC): Yes (Localization defined as >5% injected dose per gram tumor basis based on tissue distribution data)

C[N+](C)(C)CCOP(=O)([O-])OCCCCCCCCCCCCCCCCCCc1ccc([125I])cc1 [Compound I-125-NM404]
activity for 3 rads to Ovaries [5]: 20 mCi
activity for 5 rads to Adrenals [5]: 18 mCi
activity for 5 rads to Thyroids [5]: 4.5 mCi
correlation of radioactivity with tibial tumor [6]: Focal NM404 activity correlates well with tibial PC3 tumor
